Legend:
[1] = 298.15 K; 101.33 kPa; Liquid; Vibrating tube method
[2] = refractive index (Na D-line) (dimensionless); details: 298.15 K; 101.33 kPa; Liquid; Standard Abbe refractometry
[3] = xn = mol fraction of the nth substance listed; details: 298.15 K, 101 kPa, Liquid, Vibrating tube method
[4] = excess molar enthalpy (molar enthalpy of mixing); xn = mol fraction of the nth substance listed; details: 298.15 K, 101 kPa, Liquid, Calvet calorimetry

CCCCC(=O)OCC [ethyl pentanoate]
Details	mass density [kg/m3]	refractive index
[1]	869.28	–
[2]	–	1.3981

CCCCC(=O)OCC [ethyl pentanoate] + CCCCCCCCCCCC
Details	excess molar enthalpy [kcal/mol]	mass density [kg/m3]
[3], x2 = 0.0505	–	858.92
[3], x2 = 0.1024	–	849.09
[3], x2 = 0.1522	–	840.25
[3], x2 = 0.1998	–	832.32
[3], x2 = 0.2496	–	824.53
[3], x2 = 0.3013	–	816.7
[3], x2 = 0.4039	–	802.81
[3], x2 = 0.502	–	790.76
[3], x2 = 0.6026	–	779.67
[3], x2 = 0.6547	–	774.3
[3], x2 = 0.6992	–	769.94
[3], x2 = 0.7485	–	765.35
[3], x2 = 0.7982	–	760.93
[3], x2 = 0.847	–	756.88
[3], x2 = 0.8918	–	753.23
[3], x2 = 0.9497	–	748.76
[4], x2 = 0.043	0.0459	–
[4], x2 = 0.0928	0.0887	–
[4], x2 = 0.1433	0.129	–
[4], x2 = 0.1957	0.163	–
[4], x2 = 0.2488	0.192	–
[4], x2 = 0.3005	0.214	–
[4], x2 = 0.3181	0.219	–
[4], x2 = 0.3511	0.23	–
[4], x2 = 0.3548	0.232	–
[4], x2 = 0.3978	0.242	–
[4], x2 = 0.446	0.25	–
[4], x2 = 0.5012	0.252	–
[4], x2 = 0.5648	0.247	–
[4], x2 = 0.6392	0.23	–
[4], x2 = 0.7228	0.197	–
[4], x2 = 0.8127	0.148	–
[4], x2 = 0.9036	0.0896	–

CCCCCCCCCCCC [dodecane] + CCOC(C)=O
Details	excess molar enthalpy [kcal/mol]	mass density [kg/m3]
[3], x1 = 0.097	–	860.06
[3], x1 = 0.146	–	846.23
[3], x1 = 0.1976	–	833.46
[3], x1 = 0.2508	–	821.88
[3], x1 = 0.2979	–	812.79
[3], x1 = 0.3903	–	797.68
[3], x1 = 0.4943	–	783.92
[3], x1 = 0.6	–	772.56
[3], x1 = 0.6909	–	764.45
[3], x1 = 0.7392	–	760.65
[3], x1 = 0.7931	–	756.85
[3], x1 = 0.8213	–	754.91
[3], x1 = 0.8798	–	751.38
[3], x1 = 0.9374	–	748.08
[4], x1 = 0.0232	0.0564	–
[4], x1 = 0.0541	0.12	–
[4], x1 = 0.0898	0.184	–
[4], x1 = 0.1316	0.246	–
[4], x1 = 0.18	0.306	–
[4], x1 = 0.2292	0.353	–
[4], x1 = 0.279	0.389	–
[4], x1 = 0.3296	0.416	–
[4], x1 = 0.3789	0.434	–
[4], x1 = 0.4062	0.442	–
[4], x1 = 0.4261	0.444	–
[4], x1 = 0.4718	0.448	–
[4], x1 = 0.4736	0.446	–
[4], x1 = 0.5534	0.43	–
[4], x1 = 0.647	0.385	–
[4], x1 = 0.7424	0.313	–
[4], x1 = 0.8396	0.214	–
[4], x1 = 0.9339	0.101	–

CCCCCCCCCCCC [dodecane]
Details	mass density [kg/m3]	refractive index
[1]	745.1	–
[2]	–	1.4192

CCOC(C)=O [ethyl acetate]
Details	mass density [kg/m3]	refractive index
[1]	894.34	–
[2]	–	1.37

CCCCC(=O)OCC [ethyl pentanoate] + CCOC(C)=O
Details	excess molar enthalpy [kcal/mol]	mass density [kg/m3]
[3], x1 = 0.0482	–	892.36
[3], x1 = 0.0954	–	890.53
[3], x1 = 0.148	–	888.63
[3], x1 = 0.1941	–	887.05
[3], x1 = 0.3047	–	883.64
[3], x1 = 0.4	–	881.02
[3], x1 = 0.4921	–	878.73
[3], x1 = 0.5717	–	876.92
[3], x1 = 0.6556	–	875.16
[3], x1 = 0.6946	–	874.41
[3], x1 = 0.7526	–	873.29
[3], x1 = 0.7924	–	872.6
[3], x1 = 0.8362	–	871.84
[3], x1 = 0.8651	–	871.36
[3], x1 = 0.9263	–	870.36
[3], x1 = 0.9377	–	870.21
[4], x1 = 0.0627	0.0117	–
[4], x1 = 0.1347	0.0213	–
[4], x1 = 0.2071	0.0282	–
[4], x1 = 0.2799	0.0332	–
[4], x1 = 0.3493	0.0351	–
[4], x1 = 0.4144	0.0363	–
[4], x1 = 0.4736	0.0375	–
[4], x1 = 0.5198	0.0368	–
[4], x1 = 0.561	0.0361	–
[4], x1 = 0.6071	0.0347	–
[4], x1 = 0.6645	0.0318	–
[4], x1 = 0.7376	0.0272	–
[4], x1 = 0.8193	0.021	–
[4], x1 = 0.8904	0.0139	–
[4], x1 = 0.9529	0.00717	–

— the NIST ThermoML archive (doi:10.1016/j.jct.2012.03.011)
